Laboratory results reported in ChEMBL document CHEMBL3508140 (2016).

Assays:
[1] = Cumulative urinary excretion of epirubicin and its metabolites following epirubicin at 75-90 mg.m-2 dose in cancer patients; type: ADME, organism-based, Urine; details: human, in vivo
[2] = Terminal elimination of metabolite of epirubicin following intravenous epirubicin at 40-135 mg.m-2 dose in cancer patients; type: ADME, organism-based, Plasma; details: human, in vivo
[3] = Volume of distribution as steady state of epirubicin following intravenous epirubicin at 60 mg.m-2 dose in cancer patients; type: ADME, organism-based, Plasma; details: human, in vivo
[4] = Initial phase half-life of epirubicin following intravenous epirubicin at 25-35 mg.m-2 dose in cancer patients; type: ADME, organism-based, Plasma; details: human, in vivo
[5] = Recovery of epirubicin following intravenous epirubicin at 4 mg.Kg-1 dose in rat; type: ADME, organism-based, SD, Plasma; details: in vivo
[6] = Plasma clearance of epirubicin following intrahepatic epirubicin solution at 1 mg.Kg-1 dose in rabbit; type: ADME, organism-based, Oryctolagus cuniculus, Blood; details: both, New Zealand White
[7] = Plasma clearance of epirubicin following intravenous epirubicin at 75 mg.m-2 dose in cancer patients; type: ADME, organism-based; details: human, in vivo
[8] = Increase in serum phospholipid level following reference intravenous epirubicin at 1 mg.Kg-1 per week in rat; type: toxicity, organism-based, SD; details: in vivo
[9] = Detection of epirubicin in heart following single intravenous epirubicin at 10 mg.Kg-1 dose in female mouse bearing colon tumor; type: ADME, organism-based, BALB/c; details: in vivo
[10] = Increase in serum total cholesterol level following reference intravenous epirubicin at 1 mg.Kg-1 per week in rat; type: toxicity, organism-based, SD; details: in vivo
[11] = Terminal elimination of metabolite of epirubicin following intravenous epirubicin at 50 mg.m-2 dose in cancer patients; type: ADME, organism-based, Plasma; details: human, in vivo
[12] = Elimination of epirubicin following epirubicin at 60 mg.m-2 dose in cancer patients; type: ADME, organism-based, Plasma; details: human, in vivo, iv
[13] = Terminal elimination of metabolite of epirubicin following intravenous epirubicin at 25-35 mg.m-2 dose in cancer patients; type: ADME, organism-based, Plasma; details: human, in vivo
[14] = Cumulative urinary excretion of epirubicin and its metabolites following epirubicin at 50 mg.m-2 dose in cancer patients; type: ADME, organism-based, Urine; details: human, in vivo; at 50 mg/m2
[15] = Plasma clearance of epirubicin following intravenous epirubicin at 20 mg.m-2 dose in cancer patients; type: ADME, organism-based; details: human, in vivo
[16] = Mean plasma clearance of epirubicin following intravenous epirubicin at 150 mg.m-2 dose in advanced cancer patients; type: ADME, organism-based; details: human, read-out: CLp (converted)
[17] = Urinary excretion of epirubicin following epirubicin at 75-90 mg.m-2 dose in cancer patients; type: ADME, organism-based; details: human, urine; read-out: Compound recovery
[18] = Mean residence time (MRT) of epirubicin following intravenous epirubicin emulsion at 1 mg.Kg-1 dose in rabbit; type: ADME, organism-based, Oryctolagus cuniculus; details: both, New Zealand White, blood, read-out: Mean residence time (converted)
[19] = Half-life of terminal elimination phase of epirubicin following intravenous epirubicin at 60 mg.m-2 dose in cancer patients; type: ADME, organism-based; details: human, plasma
[20] = Initial phase half-life of epirubicin following intravenous epirubicin at 75-90 mg.m-2 dose in cancer patients; type: ADME, organism-based, Plasma; details: human, in vivo
[21] = Intermediate phase half-life of epirubicin following intravenous epirubicin at 20 mg.m-2 dose in cancer patients; type: ADME, organism-based, Plasma; details: human, in vivo
[22] = Plasma clearance of epirubicin following intravenous epirubicin at 90-150 mg.m-2 dose in cancer patients; type: ADME, organism-based; details: human, in vivo
[23] = Volume of distribution as steady state of epirubicin following intravenous epirubicin at 70 mg.m-2 dose in cancer patients; type: ADME, organism-based, Plasma; details: human, in vivo
[24] = Plasma clearance of epirubicin following intrahepatic epirubicin emulsion at 1 mg.Kg-1 dose in rabbit; type: ADME, organism-based, Oryctolagus cuniculus, Blood; details: both, New Zealand White
[25] = Terminal half-life of 4'-epiadriamycin following intravenous 4'-epiadriamycin at 1.27 mg.Kg-1 dose in dog; type: ADME, organism-based, Canis lupus familiaris; details: Beagle, plasma
[26] = Half-life of terminal elimination phase of epirubicin following intravenous epirubicin at 90-150 mg.m-2 dose in cancer patients; type: ADME, organism-based; details: human, plasma
[27] = Terminal half-life of epirubicin following intrahepatic epirubicin solution at 1 mg.Kg-1 dose in rabbit; type: ADME, organism-based, Oryctolagus cuniculus; details: both, New Zealand White, blood
[28] = Volume of distribution as steady state of epirubicin following intravenous epirubicin at 60-90 mg.m-2 dose in cancer patients; type: ADME, organism-based, Plasma; details: human, in vivo
[29] = Half-life of epirubicin in tumor following single intravenous epirubicin at 10 mg.Kg-1 dose in female mouse bearing colon tumor; type: ADME, organism-based, Neoplasm; details: BALB/c
[30] = (§1) Terminal half-life of epirubicinol following intravenous epirubicin at 3 mg.Kg-1 dose in rabbit; type: ADME, organism-based, Oryctolagus cuniculus, New Zealand White, Plasma; details: in vivo
[31] = Mean residence time (MRT) of epirubicin following intrahepatic epirubicin emulsion at 1 mg.Kg-1 dose in rabbit; type: ADME, organism-based, Oryctolagus cuniculus; details: both, New Zealand White, blood, read-out: Mean residence time (converted)
[32] = Initial phase half-life of epirubicin following intravenous epirubicin at 20 mg.m-2 dose in cancer patients; type: ADME, organism-based, Plasma; details: human, in vivo
[33] = Terminal half-life of epirubicin following intravenous epirubicin emulsion at 1 mg.Kg-1 dose in rabbit; type: ADME, organism-based, Oryctolagus cuniculus; details: both, New Zealand White, blood
[34] = AUC of epirubicin following intrahepatic epirubicin emulsion at 1 mg.Kg-1 dose in rabbit; type: ADME, organism-based, Oryctolagus cuniculus; details: both, New Zealand White, blood
[35] = Volume of distribution at steady state following epirubicin at 60 mg.m-2 dose in patients with cancer; type: ADME, organism-based; details: human, plasma, read-out: Vss
[36] = Initial phase half-life of epirubicin following intravenous epirubicin at 60 mg.m-2 dose in cancer patients; type: ADME, organism-based, Plasma; details: human, in vivo
[37] = Terminal half-life of epirubicin following intravenous epirubicin at 3 mg.Kg-1 dose in rabbit; type: ADME, organism-based, Oryctolagus cuniculus; details: both, New Zealand White, plasma
[38] = Terminal half-life of epirubicin following intrahepatic epirubicin emulsion at 1 mg.Kg-1 dose in rabbit; type: ADME, organism-based, Oryctolagus cuniculus; details: both, New Zealand White, blood
[39] = Cumulative urinary excretion of epirubicin and its metabolites following epirubicin at 60-150 mg.m-2 dose in cancer patients; type: ADME, organism-based, Urine; details: human, in vivo
[40] = Volume of distribution as steady state of epirubicin following intravenous epirubicin at 75-90 mg.m-2 dose in cancer patients; type: ADME, organism-based, Plasma; details: human, in vivo
[41] = as §1; type: ADME, organism-based, Oryctolagus cuniculus, New Zealand White, Plasma; details: in vivo; remark: listed apart in the source
[42] = Mean AUC of epirubicin following intravenous epirubicin at 60 mg.m-2 dose in cancer patients; type: ADME, organism-based; details: human, plasma
[43] = Detection of epirubicin in tumor following single intravenous epirubicin at 10 mg.Kg-1 dose in female mouse bearing colon tumor; type: ADME, organism-based, BALB/c, Neoplasm; details: in vivo
[44] = Increase in serum triglycerides level following reference intravenous epirubicin at 1 mg.Kg-1 per week in rat; type: toxicity, organism-based, SD; details: in vivo
[45] = Incidence of persistent proteinuria following reference intravenous epirubicin at 1 mg.Kg-1 per week in rat; type: toxicity, organism-based, SD; details: in vivo
[46] = Terminal half-life of epirubicinol following intravenous epirubicin at 1 mg.Kg-1 dose in rabbit; type: ADME, organism-based, Oryctolagus cuniculus, New Zealand White, Plasma; details: in vivo
[47] = Half-life of terminal elimination phase of epirubicin following intravenous epirubicin at 40-60 mg.m-2 dose in cancer patients; type: ADME, organism-based; details: human, plasma
[48] = Volume of distribution as steady state of epirubicin following intravenous epirubicin at 75 mg.m-2 dose in cancer patients; type: ADME, organism-based, Plasma; details: human, in vivo
[49] = Biliary excretion of epirubicin following epirubicin at 50 mg.m-2 dose in cancer patients; type: ADME, organism-based; details: human, bile, at 50 mg/m2, read-out: Compound recovery
[50] = Half-life of epirubicin in heart following single intravenous epirubicin at 10 mg.Kg-1 dose in female mouse bearing colon tumor; type: ADME, organism-based; details: BALB/c
[51] = Volume of distribution as steady state of epirubicin following intravenous epirubicin at 25-35 mg.m-2 dose in cancer patients; type: ADME, organism-based, Plasma; details: human, in vivo
[52] = AUC of epirubicin following intravenous epirubicin solution at 1 mg.Kg-1 dose in rabbit; type: ADME, organism-based, Oryctolagus cuniculus; details: both, New Zealand White, blood

Compound `COc1cccc2c1C(=O)c1c(O)c3c(c(O)c1C2=O)C[C@@](O)(C(=O)CO)C[C@@H]3O[C@H]1C[C@H](N)[C@@H](O)[C@H](C)O1.Cl` [EPIRUBICIN HYDROCHLORIDE] has a Radiolabel recovery [1] of 10.7%, a t1/2 [2] of 18.1 h and a Vss [3] of 1272 L.m-2. For the same compound, the t1/2 [4] was 2.53 min, the Compound recovery [5] was 56 10^-9M and the CL/F [6] was 2700 mL/min. The CLp [7] was 29 L.h-1.m-2, the PHOSLPD_CHANGE [8] was “OUTCOME = Increased” and the Compound recovery [9] was “OUTCOME = Observed”. For the same compound, the CHOL_CHANGE [10] was “OUTCOME = Increased”, the t1/2 [11] was 21.1 h and the Elimination [12] was “OUTCOME = Observed”. For the same compound, the t1/2 [13] was 21.1 h, the Radiolabel recovery [14] was 10.5% and the CLp [15] was 71.5 L.h-1.m-2. The clearance [16] was 1130 mL/min, the dose excreted at 48 h [17] was 5.9% and the MRT [18] was 0.835 h. For the same compound, the half-life [19] was 31.4 h, the t1/2 [20] was 4.8 min and the t1/2 [21] was 0.89 h. For the same compound, the CLp [22] was 48 L.h-1.m-2, the Vss [23] was 2332 L.m-2 and the CL/F [24] was 3780 mL/min. For the same compound, the half-life [25] was 7.1 min, the half-life [26] was 42 h and the half-life [27] was 1.14 h. It also gave a Vss [28] of 1844 L.m-2, a half-life [29] of 24.7 h and a t1/2 [30] of 1.66 h. It also gave an MRT [31] of 1.11 h, a t1/2 [32] of 3.4 min and a half-life [33] of 0.628 h. It also gave an AUC [34] of 36.4 ng·h/mL, a Vd [35] of 32 L/kg and a t1/2 [36] of 2.92 min. For the same compound, the half-life [37] was 21.3 h, the half-life [38] was 0.868 h and the Radiolabel recovery [39] was 5.9%. It also gave a Vss [40] of 1432 L.m-2, a t1/2 [41] of 33.94 h and an AUC [42] of 1500 ng·h/mL. For the same compound, the Compound recovery [43] was “OUTCOME = Observed”, the TRIG_CHANGE [44] was “OUTCOME = Increased” and the Incidence [45] was “OUTCOME = Observed”. The t1/2 [46] was 0.63 h, the half-life [47] was 15.3 h and the Vss [48] was 2964 L.m-2. For the same compound, the dose excreted at 96 h [49] was 21.9%, the half-life [50] was 10.6 h and the Vss [51] was 925 L.m-2. The AUC [52] was 180 ng·h/mL.
